Results on 59 compounds are retold here after patent publication US8946234B2, “Halogen-substituted compounds” (Bayer CropScience AG, priority 2008, dated 2015).

The nature of one data set: physchem. The data set is classed as physicochemical.
Settings: not given
Here is the method: ^a) Note regarding the determination of the log P values and mass detection: The log P values given were determined in accordance with EEC Directive 79/831 Annex V.A8 by HPLC (High Performance Liquid Chromatography) on a phase inversion column (C18). Agilent 1100 LC system; 50*4.6 Zorbax Eclipse Plus C18 1.8 micron; eluent A: acetonitrile (0.1% formic acid); eluent B: water (0.09% formic acid); linear gradient from 10% acetonitrile to 95% acetonitrile in 4.25 min, then 95% acetonitrile for a further 1.25 min; oven temperature 55° C.; flow: 2.0 ml/min. The mass detection is carried out via an Agilend MSD system.
Turning to `Cn1nc(C(F)(F)C(F)(F)F)c(C(F)(F)F)c1C(=O)Nc1ccc(Cl)c(C(=O)NCC=CCl)c1` [Ik-83], the logP is on record as 3.72^a). With `Cn1nc(C(F)(F)C(F)(F)F)c(C(F)(F)F)c1C(=O)Nc1cc(Cl)c(I)c(C(=O)NC2CC2)c1` [Ik-204], the logP is on record as 3.84^a). On the same count and under the same terms, the value for `Cn1nc(C(F)(F)C(F)(F)F)c(C(F)(F)F)c1C(=O)Nc1cc2c(cc1F)COC2=O` [Ik-105] was 3.27^a); that for `Cn1nc(C(F)(F)C(F)(F)F)c(C(F)(F)F)c1C(=O)Nc1cc(Br)c(I)c(C(=O)NCc2ccccc2)c1` [Ik-211] was 4.49^a). On to `Cn1nc(OC(F)F)c(I)c1C(=O)Nc1ccc(Cl)c(C(=O)NC2CC2)c1` [Ik-240], for which the logP is given as 2.54^a). On the same count and under the same terms, for `Cn1nc(OCC(F)(F)F)c(I)c1C(=O)Nc1ccc(Cl)c(C(=O)NCC(F)(F)F)c1` [Ik-244] the value was 3.24^a); for `Cn1nc(OC(F)F)c(Br)c1C(=O)Nc1ccc(Cl)c(C(=O)NCC(F)(F)F)c1` [Ik-236], 2.88^a); for `Cn1nc(C(F)(F)C(F)(F)F)c(C(F)(F)F)c1C(=O)Nc1cc(Cl)c(Br)c(C(=O)NCC(F)(F)F)c1` [Ik-215], 4.14^a). As for `Cn1nc(C(F)(F)C(F)(F)F)c(C(F)(F)F)c1C(=O)Nc1cc(F)c(Cl)c(C(=O)NC2CC2)c1` [Ik-188], the logP was 3.59^a). The same measure, in the same setting: for `Cn1nc(C(F)(F)C(F)(F)F)c(C(F)(F)F)c1C(=O)Nc1cc(F)c(Cl)c(C(=O)NCc2ccccc2)c1` [Ik-189] the value was 4.14^a); for `Cc1nc(C(F)(F)C(F)(F)F)nc(C)c1C(=O)Nc1ccc(Cl)c(C(=O)NCc2ccccc2)c1` [Ib-14], 3.49^a). On the same count and under the same terms, the value for `O=C(NC1CC1)c1cc(NC(=O)c2nccc(C(F)(F)F)c2Cl)ccc1Cl` [Ie-1] was 2.48^a). Consider `Cn1nc(-c2ccc(F)cc2)c(Br)c1C(=O)Nc1ccc(Cl)c(C(=O)NC2CC2)c1` [Ik-248], for which the logP is 3.04^a).

Regarding `O=C(NC1CC1)c1cc(NC(=O)c2cnc(C(F)(F)C(F)(F)F)nc2C(F)(F)C(F)(F)F)ccc1Cl` [Ib-33], the logP is 3.64^a). Still for that read-out and setting: for `CCn1nc(C(F)(F)C(F)(F)F)c(C(F)(F)F)c1C(=O)Nc1ccc(Cl)c(C(=O)NC2CC2)c1` [Ik-217] the value was 3.63^a); for `CC(NC(=O)c1cc(NC(=O)c2c(Br)c(C(F)(F)C(F)(F)F)nn2C)ccc1Cl)C(F)(F)F` (centres unmarked) [Ik-11], 2.00^a). With `C=CCNC(=O)c1cc(NC(=O)c2c(C(F)(F)F)c(C(F)(F)C(F)(F)F)nn2C)ccc1Cl` [Ik-93], the logP is listed as 3.44^a). Same read-out and setting: for `O=C(NCC(F)(F)F)c1cc(NC(=O)c2cnc(C(F)(F)C(F)(F)C(F)(F)F)nc2C(F)(F)F)ccc1Cl` [Ib-16] the value was 3.88^a); for `Cn1nc(C(F)(F)F)c(Br)c1C(=O)Nc1ccc(Cl)c(C(=O)NC2CC2F)c1` (centres unmarked) [Ik-159], 2.82^a); for `Cn1nc(C(F)(F)F)c(Cl)c1C(=O)Nc1ccc(Cl)c(C(=O)NCC(F)(F)F)c1` [Ik-154], 3.20^a). Consider `CC(NC(=O)c1cc(NC(=O)c2c(C(F)(F)F)c(C(F)(F)C(F)(F)F)nn2C)ccc1Br)C(F)(F)F` (centres unmarked) [Ik-174], for which the logP is given as 3.95^a).

Consider `Cc1nc(C(F)(F)C(F)(F)F)ncc1C(=O)Nc1ccc(Cl)c(C(=O)NCc2ccccc2)c1` [Ib-26], for which the logP is 3.43^a). Same read-out and setting: the value for `O=C(NCC=CCl)c1cc(NC(=O)c2cnc(C(F)(F)F)nc2C(F)(F)F)ccc1Cl` [Ib-5] was 3.19^a); that for `CN(C(=O)c1cnc(C(F)(F)C(F)(F)F)nc1C(F)(F)F)c1ccc(Cl)c(C(=O)NC2CC2)c1` [Ib-38] was 3.23^a).

As for `Cn1nc(-c2ccc(Cl)cc2Cl)c(Br)c1C(=O)Nc1ccc(Cl)c(C(=O)NC2CC2)c1` [Ik-250], the logP is recorded as 3.59^a). Same read-out and setting: for `O=C(NCc1ccccc1)c1cc(NC(=O)c2nccc(C(F)(F)F)c2Cl)ccc1Cl` [Ie-5] the value was 3.16^a). For `Cn1nc(C(F)F)c(C(F)(F)F)c1C(=O)Nc1ccc(Cl)c(C(=O)NC2CC2)c1` [Ik-231], the logP is listed as 2.46^a). As to `Cn1nc(C(F)(F)C(F)(F)F)c(C(F)(F)F)c1C(=O)Nc1cc(C(=O)NC2CC2)c(Cl)cn1` [Ik-318], the logP is reported as 3.24^a). On the same count and under the same terms, for `CC(C)NC(=O)c1cc(NC(=O)c2ccc(C(F)(F)F)nc2Cl)ccc1Cl` [Ir-3] the value was 2.68^a); for `Cn1nc(C(F)(F)C(F)(F)F)c(C(F)(F)F)c1C(=O)Nc1cc(Br)cc(C(=O)NCC(F)(F)F)c1` [Ik-223], 4.09^a); for `CC(C)CNC(=O)c1cc(NC(=O)c2c(C(F)(F)F)c(C(F)(F)C(F)(F)F)nn2C)ccc1Cl` [Ik-92], 3.90^a). `CN(C)C(=O)COC(=O)c1cc(NC(=O)c2c(C(F)(F)F)c(C(F)(F)C(F)(F)F)nn2C)ccc1Cl` [Ik-108]: the logP was 3.57^a). As for `Cn1nc(C(F)(F)C(F)(F)C(F)(F)C(F)(F)F)c(I)c1C(=O)Nc1ccc(Cl)c(C(=O)NC2CCC2)c1` [Ik-268], the logP is 4.16^a). On the same count and under the same terms, the value for `Cn1nc(OC(F)F)cc1C(=O)Nc1ccc(Cl)c(C(=O)NC2CC2)c1` [Ik-234] was 2.17^a); that for `O=C(NC1CC1)c1cc(NC(=O)c2cnc(C(F)(F)F)nc2C(F)(F)F)ccc1Cl` [Ib-3] was 2.78^a).

Take `Cn1nc(C(F)(F)C(F)(F)F)c(C(F)(F)F)c1C(=O)Nc1cc(F)cc(C(=O)NCc2ccccc2)c1` [Ik-162]: the logP is on record as 4.05^a). Still for that read-out and setting: for `CC#CC(C)(C)NC(=O)c1cc(NC(=O)c2c(C(F)(F)F)c(C(F)(F)C(F)(F)F)nn2C)ccc1Cl` [Ik-81] the value was 4.03^a); for `Cn1nc(C(F)(F)F)c(Br)c1C(=O)Nc1ccc(Cl)c(C(=O)NC2CC2)c1` [Ik-21], 2.75^a); for `Cn1nc(C(F)(F)C(F)(F)F)c(C(F)(F)F)c1C(=O)Nc1ccc(Br)c(C(=O)NCC(F)(F)F)c1` [Ik-173], 3.77^a).

In the case of `Cn1nc(C(F)(F)C(F)(F)F)c(C(F)(F)F)c1C(=O)Nc1cc(C(=O)NCC(F)(F)F)c(F)cc1Cl` [Ik-151], the logP is reported as 3.83^a). On the same count and under the same terms, the value for `Cn1nc(C(F)(F)C(F)(F)F)c(C(F)(F)F)c1C(=O)Nc1cc(Cl)c(Br)c(C(=O)NC2CC2)c1` [Ik-213] was 3.81^a). As to `CN(C(=O)c1c(C(F)(F)F)c(C(F)(F)C(F)(F)F)nn1C)c1ccc(Cl)c(C(=O)NCC(F)(F)F)c1` [Ik-133], the logP is given as 3.66^a). The same measure, in the same setting: for `CC(Oc1cc(C(F)(F)F)c(C(=O)Nc2ccc(Cl)c(C(=O)NC3CC3)c2)cn1)C(F)(F)F` (centres unmarked) [Ij-2] the value was 3.32^a); for `CNC(=O)c1cc(NC(=O)c2c(C(F)(F)F)c(C(F)(F)C(F)(F)F)nn2C)ccc1Cl` [Ik-85], 3.04^a). Same read-out and setting: the value for `Cc1nc(C(F)(F)F)ccc1C(=O)Nc1ccc(Cl)c(C(=O)NC(C)C)c1` [Ir-4] was 2.53^a); that for `Cc1nc(C(F)(F)F)ccc1C(=O)Nc1ccc(Cl)c(C(=O)NCC(F)(F)F)c1` [Ir-11] was 2.67^a); that for `Cn1nc(C(F)(F)C(F)(F)F)c(C(F)(F)F)c1C(=O)Nc1cc(C(=O)NC2CC2)c(F)cc1F` [Ik-145] was 3.32^a). As for `Cn1nc(C(F)(F)C(F)(F)F)c(C(F)(F)F)c1C(=O)Nc1ccc(F)c(C(=O)NCC(F)(F)F)c1` [Ik-156], the logP is 3.66^a). The same measure, in the same setting: the value for `Cc1nc(C(F)(F)F)ncc1C(=O)Nc1ccc(Cl)c(C(=O)NC2CC2)c1` [Ib-19] was 2.24v.

With `Cn1nc(C(F)(F)C(F)(F)F)c(C(F)(F)F)c1C(=O)Nc1ccc(Br)c(C(=O)NCc2ccccc2)c1` [Ik-172], the logP is 4.03^a).

The data set is the same for the next values; noted with them: HPLC method a), eluent acetonitrile/water with formic acid; read-out: logP.
As for `O=C(O)c1cnc(C(F)(F)C(F)(F)C(F)(F)F)nc1C(F)(F)F` [2-(Heptafluoropropyl)-4-(trifluoromethyl)pyrimidine-5-carboxylic acid], the chromatographic logP is 2.23.

The same data set, now with this note: HPLC on C18 phase inversion column, method a).
For the compound `COCn1nc(C(F)(F)C(F)(F)F)c(C(F)(F)F)c1C(=O)Nc1ccc(Cl)c(C(=O)NCC(F)(F)F)c1` [Ik-220], the logP was 3.82^a).

The same data set, now with this note: HPLC phase inversion (reversed-phase) C18 column, HPLC method a), eluent acetonitrile/water with formic acid; read-out: logP.
Take `Cn1nc(C(O)C2CC2)c(C(F)(F)F)c1C(=O)Nc1ccc(Cl)c(C(=O)NC2CC2)c1` (centres unmarked) [N-[4-chloro-3-(cyclopropylcarbamoyl)phenyl]-3-[cyclopropyl(hydroxy)methyl]-1-methyl-4-(trifluoromethyl)-1H-pyrazole-5-carboxamide]: the chromatographic logP turned out to be 2. Same read-out and setting: for `Cn1nc(C(F)(F)C(F)(F)F)c(C(F)(F)F)c1C(=O)Nc1cc(C(=O)O)c(Br)cn1` [5-bromo-2-({[1-methyl-3-(pentafluoroethyl)-4-(trifluoromethyl)-1H-pyrazol-5-yl]carbonyl}amino)isonicotinic acid] the value was 2.85.

For `CCn1nc(C(F)(F)C(F)(F)F)c(C(F)(F)F)c1C(=O)O` [1-Ethyl-3-(pentafluoroethyl)-4-(trifluoromethyl)-1H-pyrazole-5-carboxylic acid], the chromatographic logP came out at 2.18. Same read-out and setting: the value for `COC(=O)c1cc(NC(=O)c2c(C(F)(F)F)c(C(F)(F)C(F)(F)F)nn2C)ncc1Br` [methyl 5-bromo-2-({[1-methyl-3-(pentafluoroethyl)-4-(trifluoromethyl)-1H-pyrazol-5-yl]carbonyl}amino)-isonicotinate] was 4.04; that for `Cn1ccc(C(F)(F)C(F)(F)F)n1` [1-Methyl-3-pentafluoroethyl-1H-pyrazole] was 2.29; that for `Cn1nc(C(F)(F)F)c(C(F)(F)F)c1C(=O)O` [1-Methyl-3,4-bis(trifluoromethyl)-1H-pyrazole-5-carboxylic acid] was 1.47.

In the case of `Cc1nc(C(F)(F)C(F)(F)F)nc(C)c1C(=O)O` [4,6-Dimethyl-2-(pentafluoroethyl)pyrimidine-5-carboxylic acid], the chromatographic logP was determined as 1.63.
